Results from patent US20140296068A1, “PESTICIDAL COMPOSITIONS AND PROCESSES RELATED THERETO” (Dow AgroSciences LLC, priority 2011, published 2014).

What was measured:
[1] = system: Green Peach Aphid (Myzus persicae) (MYZUPE); test: Bioassays on Green Peach Aphid (GPA), foliar spray on cabbage seedlings; assay type: in vivo; conditions: 72 h, 200 ppm foliar spray on cabbage seedlings, graded after three days, Abbott-corrected % control, read-out: MYZUPE % Ctrl @ 200 ppm
Method: Certain molecules disclosed in this document were tested against GPA using procedures described in the following example. In the reporting of the results, the “Table 3: GPA (MYZUPE) and sweetpotato whitefly-crawler (BEMITA) Rating Table” was used (See Table Section).
Cabbage seedlings grown in 3-inch pots, with 2-3 small (3-5 cm) true leaves, were used as test substrate. The seedlings were infested with 20-50 GPA (wingless adult and nymph stages) one day prior to chemical application. Four pots with individual seedlings were used for each treatment. Test compounds (2 mg) were dissolved in 2 mL of acetone/methanol (1:1) solvent, forming stock solutions of 1000 ppm test compound. The stock solutions were diluted 5× with 0.025% Tween 20 in H2O to obtain the solution at 200 ppm test compound. A hand-held aspirator-type sprayer was used for spraying a solution to both sides of […] leaves until runoff. Reference plants (solvent check) were sprayed with the diluent only containing 20% by volume of acetone/methanol (1:1) solvent. Treated plants were held in a holding room for three days at approximately 25° C. and ambient relative humidity (RH) prior to grading. […] Percent Control was measured by using Abbott's correction formula (W. S. Abbott, “A Method of Computing the Effectiveness of an Insecticide” J. Econ. Entomol. 18 (1925), pp. 265-267) as follows. […]

[2] = system: Sweetpotato Whitefly-Crawler (Bemisia tabaci) (BEMITA); test: Insecticidal test for sweetpotato whitefly-crawler in foliar spray assay on cotton plants; assay type: in vivo; conditions: 200 ppm foliar spray on cotton plants, graded after 8-9 days, Abbott-corrected % control, read-out: BEMITA % Ctrl @ 200 ppm
Method: Cotton plants grown in 3-inch pots, with 1 small (3-5 cm) true leaf, were used as test substrate. The plants were placed in a room with whitefly adults. Adults were allowed to deposit eggs for 2-3 days. After a 2-3 day egg-laying period, plants were taken from the adult whitefly room. Adults were blown off leaves using a hand-held Devilbiss sprayer (23 psi). Plants with egg infestation (100-300 eggs per plant) were placed in a holding room for 5-6 days at 82° F. and 50% RH for egg hatch and crawler stage to develop. Four cotton plants were used for each treatment. Compounds (2 mg) were dissolved in 1 mL of acetone solvent, forming stock solutions of 2000 ppm. The stock solutions were diluted 10× with 0.025% Tween 20 in H2O to obtain a test solution at 200 ppm. A hand-held Devilbiss sprayer was used for spraying a solution to both sides of cotton leaf until runoff. Reference plants (solvent check) were sprayed with the diluent only. Treated plants were held in a holding room for 8-9 days at approximately 82° F. and 50% RH prior to grading. Evaluation was conducted by counting the number of live nymphs per plant under a microscope. Insecticidal activity was measured by using Abbott's correction formula and presented in “Table 4. Biological Data for GPA (MYZUPE) and sweetpotato whitefly-crawler (BEMITA)” (see column “BEMITA”): […]

## C#CCN(C(=O)CCSC)n1cc(-c2cccnc2)nc1C [Compound 42]
[1]
  inhibition at 200 ppm: 0 to 80%
[2]
  inhibition at 200 ppm: 80 to 100%
